{"source": "ChEMBL document CHEMBL1201862", "about": "“PubChem BioAssay data set” (2004)", "key": {"[1]": {"target": "T1, Nuclear receptor subfamily 0 group B member 1 (Homo sapiens, UniProt P51843)", "T1 sequence (P51843 whole entry)": "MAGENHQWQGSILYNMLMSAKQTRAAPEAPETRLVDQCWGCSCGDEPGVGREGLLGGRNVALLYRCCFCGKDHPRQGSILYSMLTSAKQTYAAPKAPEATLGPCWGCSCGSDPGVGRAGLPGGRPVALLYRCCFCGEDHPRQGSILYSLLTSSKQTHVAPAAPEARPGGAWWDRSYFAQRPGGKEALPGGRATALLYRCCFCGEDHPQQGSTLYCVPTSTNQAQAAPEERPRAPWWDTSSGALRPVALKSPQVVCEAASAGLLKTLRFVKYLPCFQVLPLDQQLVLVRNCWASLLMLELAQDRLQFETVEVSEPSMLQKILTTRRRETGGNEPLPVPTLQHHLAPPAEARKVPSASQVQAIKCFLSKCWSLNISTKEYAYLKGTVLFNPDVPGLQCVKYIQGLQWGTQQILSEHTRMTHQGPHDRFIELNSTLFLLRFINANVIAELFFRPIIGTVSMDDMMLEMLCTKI", "experiment": "Luminescence-based cell-based high throughput dose response assay for inhibitors of the orphan nuclear receptor subfamily 0, group B, member 1 (DAX1; NR0B1). [Related pubchem assays (depositor defined):AID504766, AID504790]", "assay_type": "functional"}, "[2]": {"target": "T2, Leucine aminopeptidase (Plasmodium falciparum 3D7, UniProt Q8IL11)", "T2 sequence (Q8IL11 whole entry)": "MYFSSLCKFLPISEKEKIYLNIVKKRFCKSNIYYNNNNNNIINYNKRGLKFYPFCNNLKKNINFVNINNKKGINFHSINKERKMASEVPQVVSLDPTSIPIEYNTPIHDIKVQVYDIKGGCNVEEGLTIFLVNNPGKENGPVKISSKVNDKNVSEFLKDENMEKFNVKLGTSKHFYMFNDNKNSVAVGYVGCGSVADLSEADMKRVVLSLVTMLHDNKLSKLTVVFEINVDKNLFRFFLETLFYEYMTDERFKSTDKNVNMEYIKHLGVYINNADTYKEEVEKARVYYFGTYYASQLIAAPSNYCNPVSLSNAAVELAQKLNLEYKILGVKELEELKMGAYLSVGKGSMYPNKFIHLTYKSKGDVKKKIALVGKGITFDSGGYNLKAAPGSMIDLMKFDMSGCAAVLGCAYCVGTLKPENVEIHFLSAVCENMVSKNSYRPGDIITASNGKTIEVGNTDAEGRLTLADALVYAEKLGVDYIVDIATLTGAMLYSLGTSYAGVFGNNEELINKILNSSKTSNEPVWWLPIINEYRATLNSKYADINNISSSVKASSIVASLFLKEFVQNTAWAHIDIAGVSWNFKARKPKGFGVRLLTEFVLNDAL", "experiment": "P. falciparum M17LAP inhibitors, primary screen, biochemical, fluorogenic H-Leu-NHMec substrate, 1536-well (AID 1619)", "assay_type": "functional"}, "[3]": {"tested_on": "HEK293", "experiment": "cells", "assay_type": "functional, cell-based", "conditions": "Homo sapiens"}, "[4]": {"tested_on": "CHO", "experiment": "cytotoxicity in TLR9-MyD88 CHO cells, dose response, cytotoxicity control for TLR9-MyD88 binding inhibitor project, cell-based, luminescence (AID 588339);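 also: CHO cells stably coexpressing TLR9 and MyD88 fusions from primary screen; compound exposure lasted 48 hours before viability readout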", "assay_type": "functional, hamster", "conditions": "Cricetulus griseus"}, "[5]": {"experiment": "inhibitors of firefly luciferase expression or activity, dose response, H4 neuroglioma cells, luminescence (AID 1990)", "assay_type": "functional, cell-based"}, "[6]": {"experiment": "HepG2 cell cytotoxicity, dose response, cytotoxicity control for Shn3 inhibitor project, CellTiter-Glo, cherry-picked (AID 624134)", "assay_type": "functional, cell-based"}, "[7]": {"target": "T3, Microphthalmia-associated transcription factor (Homo sapiens, UniProt O75030)", "T3 sequence (O75030 whole entry)": "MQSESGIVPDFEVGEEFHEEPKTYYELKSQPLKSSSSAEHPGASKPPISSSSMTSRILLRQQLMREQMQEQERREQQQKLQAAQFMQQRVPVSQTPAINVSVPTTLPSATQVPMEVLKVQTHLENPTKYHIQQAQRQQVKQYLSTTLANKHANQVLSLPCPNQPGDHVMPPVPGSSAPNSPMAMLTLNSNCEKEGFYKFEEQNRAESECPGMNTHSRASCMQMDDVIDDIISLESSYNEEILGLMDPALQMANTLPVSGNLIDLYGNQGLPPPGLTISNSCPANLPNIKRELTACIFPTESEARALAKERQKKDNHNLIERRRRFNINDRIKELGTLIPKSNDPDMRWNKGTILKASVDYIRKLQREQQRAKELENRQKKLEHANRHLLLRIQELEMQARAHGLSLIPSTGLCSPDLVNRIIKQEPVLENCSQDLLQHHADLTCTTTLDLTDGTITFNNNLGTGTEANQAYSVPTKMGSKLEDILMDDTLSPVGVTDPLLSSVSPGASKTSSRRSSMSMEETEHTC", "experiment": "TRPM1 promoter luciferase signal decrease, dose response, MITF inhibitor project, cell-based, SK-MEL-5, cherry-picked, set 3 (AID 493073)", "assay_type": "functional"}, "[8]": {"tested_on": "A-375", "experiment": "A375 melanoma cell viability reduction, dose response, counter-screen for MITF modulator project, cherry-pick samples, set 2 (AID 540335)", "assay_type": "functional, cell-based", "conditions": "Homo sapiens"}, "[9]": {"tested_on": "Streptococcus sp. 'group A'", "experiment": "growth inhibition of control SK(-) GAS strain, dose response, counter-screen for streptokinase expression inhibitor project, luminescence, kanamycin, BacTiterGlo, confirmation (AID 1900)", "assay_type": "functional, organism-based"}, "[10]": {"target": "Beta Lactamase (Pseudomonas aeruginosa, UniProt Q932Y6)", "sequence (Q932Y6 whole entry)": "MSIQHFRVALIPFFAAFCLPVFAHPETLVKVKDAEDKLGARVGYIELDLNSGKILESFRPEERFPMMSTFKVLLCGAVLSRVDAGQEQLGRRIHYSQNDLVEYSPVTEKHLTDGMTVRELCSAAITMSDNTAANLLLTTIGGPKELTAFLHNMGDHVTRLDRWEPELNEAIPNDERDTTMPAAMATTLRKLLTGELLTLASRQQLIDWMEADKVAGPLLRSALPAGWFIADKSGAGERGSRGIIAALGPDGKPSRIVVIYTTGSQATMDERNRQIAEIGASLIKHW", "experiment": "beta-lactamase reporter inhibitor potency, dose response, artefact control for TLR9-MyD88 binding inhibitor project, BLA reporter cells, FRET fluorescence (AID 588341);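 also: cell based assay in CHO-K1 cells stably expressing beta-lactamase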", "assay_type": "cell-based"}, "[11]": {"experiment": "Luminescence Cell-Based Dose Response HTS to Identify Inhibitors of 5'UTR Stem-Loop Driven Prion Protein mRNA Translation in H4 Neuroglioblastoma Cells. [Related pubchem assays: 1827 (Project Summary), 1813 (Primary HTS)]", "assay_type": "functional"}, "[12]": {"experiment": "control 3'UTR Renilla luciferase suppression, dose response, counter-screen for Shn3 inhibitor project, cell-based, Clone20-Shn3RL, cherry-picked (AID 624133)", "assay_type": "functional"}, "[13]": {"tested_on": "INS1", "experiment": "beta cell apoptosis inhibitors, cytokine rescue, dose response, luminescence, retest (AID 449756);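 also: cell death triggered by IL-1 beta plus TNF-alpha plus IFN-gamma mixture; protective hits raise ATP signal compared with cytokine alone wells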", "assay_type": "functional, cell-based", "conditions": "Rattus norvegicus"}, "[14]": {"experiment": "Shn3 3'UTR reporter inhibitors, dose response, cell-based, Clone20 osteoblasts, firefly luciferase, cherry-picked (AID 624132)", "assay_type": "functional"}, "[15]": {"tested_on": "Streptococcus", "experiment": "Group A Streptococcus viability loss, dose response, counter-screen for streptokinase expression inhibitor project, luminescence, BacTiterGlo (AID 1915)", "assay_type": "functional, organism-based"}, "[16]": {"target": "T4, Streptokinase A (Streptococcus pyogenes serotype M1, UniProt P10520)", "T4 sequence (P10520 whole entry)": "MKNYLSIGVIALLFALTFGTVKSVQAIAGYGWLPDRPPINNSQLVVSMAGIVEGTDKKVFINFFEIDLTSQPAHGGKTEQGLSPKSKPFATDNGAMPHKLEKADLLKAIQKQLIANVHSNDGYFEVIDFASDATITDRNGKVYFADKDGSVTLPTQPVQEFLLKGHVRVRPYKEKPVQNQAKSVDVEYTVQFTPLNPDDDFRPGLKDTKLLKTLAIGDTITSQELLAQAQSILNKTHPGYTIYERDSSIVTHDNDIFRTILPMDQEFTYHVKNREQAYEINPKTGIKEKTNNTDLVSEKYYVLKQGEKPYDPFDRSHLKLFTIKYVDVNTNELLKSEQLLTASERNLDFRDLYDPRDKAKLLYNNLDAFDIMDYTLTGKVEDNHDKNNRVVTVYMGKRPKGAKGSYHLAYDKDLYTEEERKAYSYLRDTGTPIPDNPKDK", "experiment": "S. pyogenes streptokinase expression inhibitors, potency, dose response, plasminogen activation absorbance, OD405 (AID 1914);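 also: secreted streptokinase activity via plasminogen activation per viability signal from cell pellet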", "assay_type": "functional, Streptococcus pyogenes M1 GAS"}, "[17]": {"experiment": "inhibitors of SNCA 5'UTR-driven reporter translation, confirmation, H4 neuroglioma cells, luminescence (AID 1988)", "assay_type": "functional, cell-based"}, "[18]": {"target": "Beta-2 adrenergic receptor (Homo sapiens, UniProt P07550)", "sequence (P07550 whole entry)": "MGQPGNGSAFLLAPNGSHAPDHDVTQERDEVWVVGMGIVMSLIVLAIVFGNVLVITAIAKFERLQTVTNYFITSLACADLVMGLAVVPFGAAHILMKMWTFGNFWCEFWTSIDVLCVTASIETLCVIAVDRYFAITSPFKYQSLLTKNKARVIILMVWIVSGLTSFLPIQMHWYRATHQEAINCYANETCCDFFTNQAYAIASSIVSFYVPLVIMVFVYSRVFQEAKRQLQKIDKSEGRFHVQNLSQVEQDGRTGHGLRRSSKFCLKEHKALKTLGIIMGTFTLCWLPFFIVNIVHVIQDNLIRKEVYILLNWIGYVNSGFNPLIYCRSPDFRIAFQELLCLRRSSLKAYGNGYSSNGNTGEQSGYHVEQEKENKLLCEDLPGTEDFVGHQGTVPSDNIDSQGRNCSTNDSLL", "experiment": "beta2AR agonists driving receptor internalization, dose response, cell-based, FAP fluorogen, flow cytometry, cherry pick 1 (AID 588763)", "assay_type": "functional"}, "[19]": {"target": "T5, Cytochrome P450 1A2 (Homo sapiens, UniProt P05177)", "T5 sequence (P05177 whole entry)": "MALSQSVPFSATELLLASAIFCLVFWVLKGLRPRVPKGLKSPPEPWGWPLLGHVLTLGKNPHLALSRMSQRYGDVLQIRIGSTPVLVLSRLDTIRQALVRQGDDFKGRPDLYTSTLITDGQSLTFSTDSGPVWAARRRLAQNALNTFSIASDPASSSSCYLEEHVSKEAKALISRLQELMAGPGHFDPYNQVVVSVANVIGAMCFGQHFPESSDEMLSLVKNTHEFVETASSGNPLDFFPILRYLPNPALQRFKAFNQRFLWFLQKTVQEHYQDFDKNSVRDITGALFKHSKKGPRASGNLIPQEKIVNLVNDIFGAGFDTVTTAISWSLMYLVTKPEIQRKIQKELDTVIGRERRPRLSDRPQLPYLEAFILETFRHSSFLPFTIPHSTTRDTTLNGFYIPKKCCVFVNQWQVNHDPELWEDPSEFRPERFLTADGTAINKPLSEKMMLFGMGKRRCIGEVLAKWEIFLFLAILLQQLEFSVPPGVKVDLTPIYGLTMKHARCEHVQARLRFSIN"}, "[20]": {"target": "Cytochrome P450 2C9 (Homo sapiens, UniProt P11712)", "sequence (P11712 whole entry)": "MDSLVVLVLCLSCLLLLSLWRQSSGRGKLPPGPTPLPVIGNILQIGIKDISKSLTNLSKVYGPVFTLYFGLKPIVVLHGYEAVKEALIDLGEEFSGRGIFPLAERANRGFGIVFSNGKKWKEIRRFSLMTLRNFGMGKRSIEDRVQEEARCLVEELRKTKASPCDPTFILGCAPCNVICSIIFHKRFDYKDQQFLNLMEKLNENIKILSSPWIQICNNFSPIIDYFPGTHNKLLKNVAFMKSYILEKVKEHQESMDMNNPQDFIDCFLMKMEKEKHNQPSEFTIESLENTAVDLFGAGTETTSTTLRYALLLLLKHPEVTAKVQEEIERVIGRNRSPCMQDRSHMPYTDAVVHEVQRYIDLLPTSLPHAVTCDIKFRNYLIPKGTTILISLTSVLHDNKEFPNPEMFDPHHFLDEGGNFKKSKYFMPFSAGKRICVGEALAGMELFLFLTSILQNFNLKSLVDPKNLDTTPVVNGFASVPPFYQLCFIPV"}}, "note": "Calls of active or inactive are those of the source."}
{"smiles": "Cc1ccc(S(=O)(=O)Oc2cccc(N3C(=O)C4CC=CCC4C3=O)c2)cc1", "note": "(stereo not drawn)", "values": [{"measurement": "IC50", "setting": "[1]", "value": "> 67.5 µM (inactive)"}, {"measurement": "IC50", "setting": "[2]", "value": "49.6 µM (active)"}, {"measurement": "IC50", "setting": "[3]", "value": "> 67.5 µM (inactive)"}]}
{"smiles": "CCOC(=O)c1ccc(NC(=O)c2nc(S(=O)(=O)Cc3ccccc3)ncc2Cl)cc1", "values": [{"measurement": "IC50", "setting": "[4]", "value": "1.95 µM (active)"}, {"measurement": "EC50", "setting": "[5]", "value": "> 120 µM (not active)"}, {"measurement": "AC50", "setting": "[6]", "value": "28.9 µM (active)"}, {"measurement": "AC50", "setting": "[7]", "value": "9.92 µM (active)"}, {"measurement": "AC50", "setting": "[8]", "value": "36.6 µM (active)"}, {"measurement": "EC50", "setting": "[9]", "value": "6.81 µM (active)"}, {"measurement": "IC50", "setting": "[10]", "value": "8.4 µM (active)"}, {"measurement": "EC50", "setting": "[11]", "value": "10.3 µM (active)"}, {"measurement": "AC50", "setting": "[12]", "value": "7.7 µM (active)"}, {"measurement": "AC50", "setting": "[13]", "value": "6.7 µM (active)"}, {"measurement": "AC50", "setting": "[14]", "value": "572 nM (active)"}, {"measurement": "EC50", "setting": "[15]", "value": "10 µM (active)"}, {"measurement": "EC50", "setting": "[16]", "value": "2.11 µM (active)"}, {"measurement": "EC50", "setting": "[17]", "value": "10.8 µM (active)"}]}
{"smiles": "CCN(Cc1ccccc1)S(=O)(=O)c1cc(C(=O)NC(C)C2CC3CCC2C3)ccc1OC", "note": "(stereo not drawn)", "values": [{"measurement": "EC50", "setting": "[18]", "value": "8.76 µM (active)"}]}
{"smiles": "CSCC[C@H](NC(=O)OC(C)(C)C)C(=O)N1CCC(C(=O)N[C@@H](C)C(=O)NC(C)c2ccccc2)CC1", "note": "(stereo partly drawn)", "values": [{"measurement": "IC50", "setting": "[1]", "value": "> 67.5 µM (inactive)"}, {"measurement": "IC50", "setting": "[3]", "value": "> 67.5 µM (inactive)"}]}
{"smiles": "O=C(C[n+]1cccc(NC(=O)c2ccccc2)c1)c1ccc(NC(=O)c2ccccc2)cc1", "values": [{"measurement": "AC50", "setting": "[19]", "value": "17.8 µM (inconclusive)"}, {"measurement": "EC50", "setting": "[18]", "value": "2.76 µM (active)"}, {"measurement": "AC50", "setting": "[20]", "value": "5.62 µM (inconclusive)"}]}
